Experiments:
[1] = test system: human colon cancer LS174T xenografts; test: Tumor growth in nude mice bearing LS174T xenografts
MDM2 = conditions: SJSA and JAR cells; cited from earlier work
SJSA xenografts = test: Tumor growth in nude mice bearing SJSA xenografts; assay type: in vivo; conditions: SJSA xenografts (average 150 mg), ip, 5 doses/week
Method: 51:173-182, 1996). […] The control group received physiological saline only.
Tumor growth was monitored using the methods previously reported (74,75). Tumor weight (g) was calculated by the formula, ½·a·b^2, where “a” is the long diameter (cm) and “b” is the short diameter (cm) of the tumor. At the end of the experiment, tumors were removed, weighed, and then fixed for pathology evaluation.

Substance: Oligo AS: 20-mer mixed-backbone phosphorothioate oligonucleotide with 2′-O-methyl ends, 5′UGACACCTGTTCTCACUCAC-3′; SEQ ID NO:47 (mixed phosphorothioate backbone with 2'-O-methyl ends, pattern not given here)
- xenograft pathology (tumor histology) [1]: patches of collagenous connective tissues replacing tumor and necropurulent, ulcerative changes
- effect on in vivo tumor growth ([1]; daily ip dose 20 mg/kg): significant inhibitory effect
- Ratio (%) of % T:C with oligo to % T:C without oligo ([2]/[1] or [3]/[1]) ([1]; day 3): 51%
- Growth ratio % T:C (mean tumor mass of treated group vs saline control) ([1]; day 3, oligo 20, HCPT 3, 5-FU 10 mg/kg/day): 50.9%
- Ratio (%) of % T:C with oligo to % T:C without oligo ([2]/[1] or [3]/[1]) ([1]; day 6): 44%
- Growth ratio % T:C (mean tumor mass of treated group vs saline control) ([1]; day 6, oligo 20, HCPT 3, 5-FU 10 mg/kg/day): 44.1%
- Ratio (%) of % T:C with oligo to % T:C without oligo ([2]/[1] or [3]/[1]) ([1]; day 9): 30%
- Growth ratio % T:C (mean tumor mass of treated group vs saline control) ([1]; day 9, oligo 20, HCPT 3, 5-FU 10 mg/kg/day): 29.9%
- Ratio (%) of % T:C with oligo to % T:C without oligo ([2]/[1] or [3]/[1]) ([1]; day 12): 34%
- Growth ratio % T:C (mean tumor mass of treated group vs saline control) ([1]; day 12, oligo 20, HCPT 3, 5-FU 10 mg/kg/day): 34.3%
- Ratio (%) of % T:C with oligo to % T:C without oligo ([2]/[1] or [3]/[1]) ([1]; day 15): 45%
- Growth ratio % T:C (mean tumor mass of treated group vs saline control) ([1]; day 15, oligo 20, HCPT 3, 5-FU 10 mg/kg/day): 45.2%
- Ratio (%) of % T:C with oligo to % T:C without oligo ([2]/[1] or [3]/[1]) ([1]; day 18): 37%
- Growth ratio % T:C (mean tumor mass of treated group vs saline control) ([1]; day 18 (end of experiment), oligo 20, HCPT 3, 5-FU 10 mg/kg/day): 37.3%
- MDM2 expression (MDM2): specifically inhibits MDM2 expression
- effect on tumor growth (SJSA xenografts): dose-dependent effect
